Usually mortality stands for the share of the test organisms that died. The low end stands for a weak lethal effect, the high end for a strong lethal effect.

Assay type in all cases: in vivo
In one experiment the test system is Diabrotica balteata. The experiment in a line: Example B2: Diabrotica balteata (corn root worm), maize sprouts, L2 larvae. As to conditions: for percent control (mortality or growth inhibition) at 200 ppm: Diabrotica balteata, 96 h, application rate of 200 ppm, 4 days after infestation, read-out: control in at least one of the two categories (mortality or growth inhibition). How it is done:
Maize sprouts placed onto an agar layer in 24-well microtiter plates were treated with aqueous test solutions prepared from 10,000 ppm DMSO stock solutions by spraying. After drying, the plates were infested with L2 larvae (6 to 10 per well). The samples were assessed for mortality and growth inhibition in comparison to untreated samples 4 days after infestation.

In a further experiment the test system is Chilo suppressalis. Description: Example B1: Chilo suppressalis (striped rice stemborer), artificial diet, L2 larvae. The note with it: 144 h, application rate of 200 ppm, 6 days after infestation, read-out: control in at least one of the three categories (mortality, anti-feedant effect, or growth inhibition). As for the experimental part: 24-well microtiter plates with artificial diet were treated with aqueous test solutions prepared from 10,000 ppm DMSO stock solutions by pipetting. After drying, the plates were infested with L2 larvae (6-8 per well). The samples were assessed for mortality, anti-feeding effect, and growth inhibition in comparison to untreated samples 6 days after infestation. Control of Chilo suppressalis by a test sample is given when at least one of the categories mortality, anti-feedant effect, and growth inhibition is higher than the untreated sample.

Experiment [1] concerns Myzus persicae. Description: Example B3: Myzus persicae (green peach aphid) intrinsic activity. The note with it: 120 h, test rate of 12 ppm, 5 days after infestation. As for the experimental part:
Test compounds prepared from 10′000 ppm DMSO stock solutions were applied by pipette into 24-well microtiter plates and mixed with sucrose solution. The plates were closed with a stretched Parafilm. A plastic stencil with 24 holes was placed onto the plate and infested pea seedlings were placed directly on the Parafilm. The infested plate was closed with a gel blotting paper and another plastic stencil and then turned upside down. The samples were assessed for mortality 5 days after infestation.

The test system of experiment [2] is Plutella xylostella. Description: Example B4: Plutella xylostella (diamond back moth), artificial diet, eggs. As to conditions: Plutella xylostella, 192 h; application rate of 200 ppm; 8 days after infestation; read-out: control in at least one of the two categories (mortality or growth inhibition). How it is done:
24-well microtiter plates with artificial diet were treated with aqueous test solutions prepared from 10′000 ppm DMSO stock solutions by pipetting. After drying, Plutella eggs were pipetted through a plastic stencil onto a gel blotting paper and the plate was closed with it. The samples were assessed for mortality and growth inhibition in comparison to untreated samples 8 days after infestation.

For experiment [3], the system named is Myzus persicae. The experiment in a line: Example B9: Myzus persicae (green peach aphid) feeding/contact activity, sunflower leaf discs. The note with it: foliar, 144 h, application rate of 200 ppm, 6 days after infestation. How it is done: Sunflower leaf discs were placed onto agar in a 24-well microtiter plate and sprayed with aqueous test solutions prepared from 10,000 ppm DMSO stock solutions. After drying, the leaf discs were infested with an aphid population of mixed ages. The samples were assessed for mortality 6 days after infestation.

Experiment [4] has as its system Spodoptera littoralis. Description: Example B5: Spodoptera littoralis (Egyptian cotton leaf worm), cotton leaf discs, L1 larvae. As to conditions: foliar, 72 h, application rate of 200 ppm, 3 days after infestation, read-out: control in at least one of the three categories (mortality, anti-feedant effect, or growth inhibition). As for the experimental part:
Cotton leaf discs were placed onto agar in 24-well microtiter plates and sprayed with aqueous test solutions prepared from 10,000 ppm DMSO stock solutions. After drying the leaf discs were infested with five L1 larvae. The samples were assessed for mortality, anti-feeding effect, and growth inhibition in comparison to untreated samples 3 days after infestation. Control of Spodoptera littoralis by a test sample is given when at least one of the categories mortality, anti-feedant effect, and growth inhibition is higher than the untreated sample.

The subject of experiment [5] is Myzus persicae. The experiment in a line: Example B7: Myzus persicae (green peach aphid), 96-well sucrose solution. The note with it: 120 h, application rate of 50 ppm, 5 days after infestation. As for the experimental part: Test compounds prepared from 10′000 ppm DMSO stock solutions were applied by a liquid handling robot into 96-well microtiter plates and mixed with a sucrose solution. Parafilm was stretched over the 96-well microtiter plate and a plastic stencil with 96 holes was placed onto the plate. Aphids were sieved into the wells directly onto the Parafilm. The infested plates were closed with a gel blotting card and a second plastic stencil and then turned upside down. The samples were assessed for mortality 5 days after infestation.

Experiment [6] relates to Spodoptera littoralis. Description: Example B6: Spodoptera littoralis, uptake by lettuce roots from agar. As to conditions: 144 h, test rate of 12.5 ppm, 6 days after infestation, read-out: effect in at least one of the three categories (mortality, anti-feeding, or growth inhibition). An excerpt:
Test compounds were applied by pipette from 10,000 ppm DMSO stock solutions into 24-well plates and mixed with agar. Lettuce seeds were placed onto the agar and the multi well plate was closed by another plate which contained also agar. After 7 days the compound was absorbed by the roots and the lettuce grew into the lid plate. The lettuce leaves were then cut off into the lid plate. Spodoptera eggs were pipetted through a plastic stencil onto a humid gel blotting paper and the lid plate was closed with it. The samples were assessed for mortality, anti-feedant effect and growth inhibition in comparison to untreated samples 6 days after infestation.

The subject of experiment [7] is Plutella xylostella. The experiment in a line: Example B8: Plutella xylostella (diamondback moth), 96-well artificial diet. As to conditions: 216 h, application rate of 500 ppm, 9 days after infestation. How it is done:
96-well microtiter plates containing artificial diet were treated with aqueous test solutions, prepared from 10,000 ppm DMSO stock solutions, by a liquid handling robot. After drying, eggs (˜30 per well) were infested onto a netted lid which was suspended above the diet. The eggs hatch and L1 larvae move down to the diet. The samples were assessed for mortality 9 days after infestation.

Turning to `CC(NC(=O)c1cc(C(F)(F)F)cc(C2(C#N)CC2)c1)c1nccnc1-c1cnccn1` (stereo not shown) [Compound P21], in the experiment with Diabrotica balteata (Concentration 50 ppm, Diabrotica balteata (Example B32)), the mortality at 50 ppm came out at 100%. For the same compound, the percent control (mortality or growth inhibition) at 200 ppm in the experiment on Diabrotica balteata and in the experiment on Plutella xylostella [2] was no less than 80% throughout. Also, the percent control (mortality, anti-feedant effect or growth inhibition) at 200 ppm in the experiment with Chilo suppressalis and in the experiment on Spodoptera littoralis [4] was no less than 80% each time. Besides, in the experiment with Myzus persicae [1], the mortality at 12 ppm is no less than 80%. Besides, the mortality at 200 ppm in the experiment on Myzus persicae [3] was no less than 80%.

Take `CC(NC(=O)c1cc(I)cc(I)c1)c1nccnc1-c1cnccn1` (stereo not shown) [Compound P17, 3,5-diiodo-N-[1-(3-pyrazin-2-ylpyrazin-2-yl)ethyl]benzamide]: the percent control (mortality or growth inhibition) at 200 ppm in the experiment with Diabrotica balteata and in the experiment on Plutella xylostella [2] was no less than 80% in each case. In the experiment on Myzus persicae [3], this compound had a mortality at 200 ppm of no less than 80%. The percent control (mortality, anti-feedant effect or growth inhibition) at 200 ppm in the experiment on Spodoptera littoralis [4] was no less than 80%.

As for `CC(NC(=O)c1cc(Br)cc(C(F)(F)F)c1)c1nccnc1-c1cnccn1` (stereo not shown) [Compound P7, 3-bromo-N-[1-(3-pyrazin-2-ylpyrazin-2-yl)ethyl]-5-(trifluoromethyl)benzamide], the percent control (mortality or growth inhibition) at 200 ppm in the experiment with Diabrotica balteata and with Plutella xylostella [2] was no less than 80% each time. Also, the percent control (mortality, anti-feedant effect or growth inhibition) at 200 ppm with Chilo suppressalis and in the experiment with Spodoptera littoralis [4] was no less than 80% in each case. In the experiment with Myzus persicae [3], this compound gave a mortality at 200 ppm of no less than 80%.

`C[C@H](NC(=O)c1cc(C(F)(F)F)cc(C(F)(F)F)c1)c1nccnc1-c1cnccn1` [Compound E3, N-[(1S)-1-(3-pyrazin-2-ylpyrazin-2-yl)ethyl]-3,5-bis(trifluoromethyl)benzamide]: the percent control (mortality or growth inhibition) at 200 ppm in the experiment on Diabrotica balteata and in the experiment with Plutella xylostella [2] was no less than 80% each time. The percent control (mortality, anti-feedant effect or growth inhibition) at 200 ppm in the experiment with Chilo suppressalis and in the experiment on Spodoptera littoralis [4] was no less than 80% throughout. Also, the mortality at 12 ppm in the experiment with Myzus persicae [1] was no less than 80%. Besides, the mortality at 50 ppm in the experiment with Myzus persicae [5] was no less than 80%. The percent effect (mortality, anti-feeding or growth inhibition) at 12.5 ppm in the experiment on Spodoptera littoralis [6] was no less than 80%. In the experiment with Plutella xylostella [7], this compound showed a mortality at 500 ppm of no less than 80%.

On to `CC(NC(=O)c1cc(OC(F)F)cc(OC(F)F)c1)c1nccnc1-c1cnccn1` (stereo not shown) [Compound P2, 3,5-bis(difluoromethoxy)-N-[1-(3-pyrazin-2-ylpyrazin-2-yl)ethyl]benzamide], for which the percent control (mortality or growth inhibition) at 200 ppm in the experiment on Diabrotica balteata and in the experiment with Plutella xylostella [2] was no less than 80% throughout. For the same compound, the percent control (mortality, anti-feedant effect or growth inhibition) at 200 ppm in the experiment on Chilo suppressalis and in the experiment on Spodoptera littoralis [4] was no less than 80% in each case. The compound further gave a mortality at 12 ppm in the experiment with Myzus persicae [1] of no less than 80%.

For `CC(NC(=O)c1cc(C(F)(F)F)cc(S(C)(=O)=O)c1)c1nccnc1-c1cnccn1` (stereo not shown) [Compound P16, 3-methylsulfonyl-N-[1-(3-pyrazin-2-ylpyrazin-2-yl)ethyl]-5-(trifluoromethyl)benzamide], the percent control (mortality or growth inhibition) at 200 ppm in the experiment with Diabrotica balteata and with Plutella xylostella [2] was no less than 80% each time. Also, the percent control (mortality, anti-feedant effect or growth inhibition) at 200 ppm in the experiment with Chilo suppressalis and in the experiment with Spodoptera littoralis [4] was no less than 80% throughout. The mortality at 12 ppm in the experiment on Myzus persicae [1] was no less than 80%.

`CC(NC(=O)c1cc(OC(F)F)cc(C(F)(F)F)c1)c1nccnc1-c1cnccn1` (stereo not shown) [Compound P20]: the percent control (mortality or growth inhibition) at 200 ppm in the experiment with Diabrotica balteata and in the experiment with Plutella xylostella [2] was no less than 80% in each case. The percent control (mortality, anti-feedant effect or growth inhibition) at 200 ppm in the experiment with Chilo suppressalis and in the experiment with Spodoptera littoralis [4] was no less than 80% in each case. Further, the mortality at 12 ppm in the experiment on Myzus persicae [1] was no less than 80%.

With `CC(NC(=O)c1cc(Cl)nc(C(F)(F)F)c1)c1nccnc1-c1cnccn1` (stereo not shown) [Compound P14, 2-chloro-N-[1-(3-pyrazin-2-ylpyrazin-2-yl)ethyl]-6-(trifluoromethyl)pyridine-4-carboxamide], the percent control (mortality or growth inhibition) at 200 ppm in the experiment on Diabrotica balteata and in the experiment with Plutella xylostella [2] was no less than 80% each time. Also, the percent control (mortality, anti-feedant effect or growth inhibition) at 200 ppm in the experiment with Chilo suppressalis and in the experiment on Spodoptera littoralis [4] was no less than 80% in each case. The mortality at 200 ppm in the experiment with Myzus persicae [3] is no less than 80%.

As to `CC(NC(=O)c1cc(OC(F)(F)F)cc(C2(C#N)CC2)c1)c1nccnc1-c1cnccn1` (stereo not shown) [Compound P31], the percent control (mortality or growth inhibition) at 200 ppm in the experiment with Diabrotica balteata and with Plutella xylostella [2] was no less than 80% in each case. Further, the percent control (mortality, anti-feedant effect or growth inhibition) at 200 ppm with Chilo suppressalis and with Spodoptera littoralis [4] was no less than 80% each time. Further, in the experiment on Myzus persicae [1], the mortality at 12 ppm was no less than 80%.

Take `CC(NC(=O)c1cc(F)cc(C(F)(F)F)c1)c1nccnc1-c1cnccn1` (stereo not shown) [Compound P25, 3-fluoro-N-[1-(3-pyrazin-2-ylpyrazin-2-yl)ethyl]-5-(trifluoromethyl)benzamide]: in the experiment on Plutella xylostella [2], the percent control (mortality or growth inhibition) at 200 ppm is no less than 80%. The mortality at 200 ppm in the experiment with Myzus persicae [3] is no less than 80%.

For the compound `CC(NC(=O)c1cc(Cl)cc(Br)c1)c1nccnc1-c1cnccn1` (stereo not shown) [Compound P12, 3-bromo-5-chloro-N-[1-(3-pyrazin-2-ylpyrazin-2-yl)ethyl]benzamide], the percent control (mortality or growth inhibition) at 200 ppm in the experiment with Diabrotica balteata and in the experiment with Plutella xylostella [2] was no less than 80% throughout. In the experiment with Myzus persicae [3], this compound yielded a mortality at 200 ppm of no less than 80%. Also, in the experiment on Spodoptera littoralis [4], the percent control (mortality, anti-feedant effect or growth inhibition) at 200 ppm was no less than 80%.

As to `Cc1cc(C(=O)NC(C)c2nccnc2-c2cnccn2)cc(C(F)(F)F)c1` (stereo not shown) [Compound P18, 3-methyl-N-[1-(3-pyrazin-2-ylpyrazin-2-yl)ethyl]-5-(trifluoromethyl)benzamide], the percent control (mortality, anti-feedant effect or growth inhibition) at 200 ppm with Chilo suppressalis is no less than 80%. In addition, in the experiment on Plutella xylostella [2], the percent control (mortality or growth inhibition) at 200 ppm is no less than 80%. The same compound came in with a mortality at 200 ppm in the experiment with Myzus persicae [3] of no less than 80%.

These data come from patent publication US20240287047A1, “PESTICIDALLY ACTIVE DIAZINE-AMIDE COMPOUNDS” (SYNGENTA CROP PROTECTION AG, priority 2021, published 2024).
